Results: patent US20230233532A1, “SPHINGOSINE-1-PHOSPHATE RECEPTOR 1 AGONIST AND LIPOSOMAL FORMULATIONS THEREOF” (The Penn State Research Foundation, priority 2020, published 2023)

How the values were obtained:
HUVEC = HUVEC monolayer model of endothelial gap formation (VE-cadherin staining); format: cell-based, human; details: for EC gap formation, screening of inflammatory inhibitors: FIG. 8, 5 μM; for EC gap formation induced by VEGF / EC gap formation induced by IL-8 / EC gap formation induced by BK / EC gap formation, agonist alone: 5 μM; for EC gap formation induced by VEGF: 100 ng/ml VEGF; for EC gap formation induced by IL-8: 150 ng/ml IL-8; for EC gap formation induced by BK: 0.5 μM BK; for EC gap formation, agonist alone: no inflammatory mediator
Method: HUVECs were seeded on coverslips coated with fibronectin (Millipore Sigma) and cultured to confluency. […] HUVECs fixed with 2% cold paraformaldehyde (Electron Microscopy Science) and treated with 0.1% triton X-100 (Fisher) were exposed to a human VE-cadherin antibody (Santa Cruz) followed by the secondary antibody conjugated with Alexa488 (Invitrogen). Coverslips were mounted to slides using the antifade mounting medium with DAPI (Vector Laboratories).

A375M-GFP melanoma cells = test: Experimental lung metastasis model, A375M-GFP; format: in vivo, Athymic Foxn1nu nude mice; details: 5 mg/kg intraperitoneally 6, 12 or 18 hours before cells, day 29; control 62
Method: […] lacking Compound I (Lipo) vehicle control, for 6, 12 or 18 hours prior to intravenous injection of 1 million A375M-GFP cells through the tail vein. […] For experiments using UACC 903M-GFP and 1205Lu-GFP cells, 15 mg/kg of the nanoliposomal formulation were given 6 hours before cancer cell injection. Body weight was monitored to ensure no significant toxicity during the experimental metastasis assay. On day 29, whole lungs were removed and imaged by fluorescent microscopy to quantify the numbers of metastatic nodules in a double-blinded manner.

[1] = system: intact rat mesenteric venules; test: Hydraulic conductivity (Lp) in individually perfused rat mesenteric microvessels; format: in vivo
Method: Experiments were undertaken on mesenteric venules from female Sprague-Dawley rats (2-3-month old, 220-250 g body weight, Sage Laboratory). Inactin hydrate was used for anesthesia through subcutaneous administration. The initial dosage of inactin was 180 mg/kg body weight and an additional 5 mg/dose given as needed. After the rat reached the appropriate plane of anesthesia, determined by the loss of the toe pinch response and the righting reflex, a midline surgical incision was made in the abdominal wall. A loop of the ileum was gently extended from the abdominal cavity and the mesentery was spread over a pillar attached to an animal tray. The upper surface of the mesentery was continuously perfused with mammalian Ringer's solution at 37° C. All experiments were carried out on venules with diameters ranging between […]. Each experiment was performed on a single vessel with one experiment per animal. Euthanasia was performed through bilateral thoracotomy while animals were under anesthesia. Microvessel permeability was assessed by measuring one of the permeability coefficients, hydraulic conductivity, Lp, using the modified […] technique. The assumptions and limitations of the method have been evaluated in detail (31-33). […] The initial water flux (Jv) per unit area of microvessel wall (S), (Jv/S)0, was calculated from the velocity of the marker cell after the vessel was occluded, the vessel radius, and the length between the marker cell and the occlusion site. Microvessel Lp was calculated from the Starling equation, Lp=(Jv/S)/ΔP, where ΔP represents the pressure difference between the hydrostatic pressure applied to the microvessel and the effective oncotic pressure generated from the albumin in the perfusate, assuming the tissue hydrostatic and oncotic pressures are negligible (31). In each experiment, baseline Lp and the stimulus-induced Lp changes were measured in the same vessel, which allows the changes to be compared with its own control. […]

S1PR1 = S1PR1 (Homo sapiens, UniProt P21453); test: S1P1 GPCR cell-based agonist arrestin biosensor assay (Eurofins DiscoverX); details: FIG. 1C
Description: 4-Phenyl-5-trifluoromethyl-thiophene-2-carboxylic acid (1) was first converted in situ to the corresponding acid chloride by treating with oxalyl chloride in the presence of catalytic N,N-dimethyl formamide. […] The structures of Intermediate 3 and Compound I were characterized on the basis of NMR and mass spectrometry.

[2] = system: MAPK/ERK, PI3K/AKT, NF-κB and vascular permeability regulation pathways; test: Off-target effects on key signaling pathways by western blotting in HUVEC; format: cell-based, human; details: versus DMSO control
Method: (§1) A monolayer of HUVEC cells following varying treatments were lyzed in RIPA buffer containing protease and phosphatase inhibitors (Pierce Biotechnologies). 20 μg of cell lysate was used for western blotting and probed with antibodies according to the suppliers' recommendations to assess off target effects on several major signaling pathways. Antibodies to p-ERK, ERK, p-PI3K, PI3K, p-FAK, FAK, p-PAK1, PAK1, p-PAK2, PAK2, p-MLC, p-NF-κB, NF-κB were used to probe western blots (Cell Signaling). α-Tubulin (Millipore Sigma) was used as a loading control.

[3] = system: myosin light chain (MLC) phosphorylation; test: Western blotting of MLC phosphorylation in HUVEC; format: cell-based, human
Method: as §1

[4] = system: S1PR1 in HEK293A-S1P1-GFP cells; test: S1PR1 internalization assay; format: cell-based; details: 5 μM W146
Method: […] cells were plated on collagen-coated coverslips (30). Cells were cultured overnight in DMEM with 2% charcoal-stripped serum. Prior to the experiment, cells were cultured in serum-free DMEM for 1.5 hours.

Sequence of S1PR1 (P21453 whole entry): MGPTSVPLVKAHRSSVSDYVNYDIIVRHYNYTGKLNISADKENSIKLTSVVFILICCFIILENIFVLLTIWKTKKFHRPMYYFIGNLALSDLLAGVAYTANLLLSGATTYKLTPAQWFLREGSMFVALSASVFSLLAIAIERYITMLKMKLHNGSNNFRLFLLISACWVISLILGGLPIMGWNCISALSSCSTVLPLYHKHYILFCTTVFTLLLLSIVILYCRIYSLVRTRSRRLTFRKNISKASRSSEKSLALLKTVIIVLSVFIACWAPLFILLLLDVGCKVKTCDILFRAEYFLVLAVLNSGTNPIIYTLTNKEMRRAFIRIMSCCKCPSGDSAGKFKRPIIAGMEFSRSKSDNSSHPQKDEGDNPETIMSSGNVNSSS

C=CC[C@@H]1/C=C(\C)C[C@H](C)C[C@H](OC)[C@H]2O[C@@](O)(C(=O)C(=O)N3CCCC[C@H]3C(=O)O[C@H](/C(C)=C/[C@@H]3CC[C@@H](O)[C@H](OC)C3)[C@H](C)[C@@H](O)CC1=O)[C@H](C)C[C@@H]2OC [Tacrolimus]
EC gap formation, screening of inflammatory inhibitors (HUVEC): did not decrease EC gap formation

FC(F)(F)c1cccc(-c2noc(-c3cc(-c4ccccc4)c(C(F)(F)F)s3)n2)c1 [SEW2871]
metastatic nodules in the lung (A375M-GFP melanoma cells): 17-27 | PAF-induced mean Lp ([1]; PAF 10 nM in presence of SEW2871 10 PM (printed), n=6): 1.73±0.15 times that of the control | effect on baseline Lp ([1]; SEW2871 10 PM (printed), perfusion 30 minutes): did not change the baseline Lp | EC gap formation induced by VEGF (HUVEC): reduced the EC gap formation | EC gap formation induced by IL-8 (HUVEC): reduced the EC gap formation | EC gap formation induced by BK (HUVEC): reduced the EC gap formation | EC gap formation, agonist alone (HUVEC): did not affect EC gap formation | EC gap formation, screening of inflammatory inhibitors (HUVEC): inhibited EC gap formation | endothelial gap formation induced by MIC-1 and BK (HUVEC; confluent HUVEC monolayer): inhibited the endothelial gap formation

COC(=O)c1ccc2c(c1)NC(=O)/C2=C(\Nc1ccc(N(C)C(=O)CN2CCN(C)CC2)cc1)c1ccccc1 [Nintedanib]
EC gap formation, screening of inflammatory inhibitors (HUVEC): did not decrease EC gap formation

CC(=O)N1CCN(C(=O)/C=C/c2ccc(Sc3ccccc3C(C)C)c([N+](=O)[O-])c2)CC1 [Compound A286982]
EC gap formation, screening of inflammatory inhibitors (HUVEC): did not decrease EC gap formation

O=C(Nc1c(Cl)cncc1Cl)c1ccc(OC(F)F)c(OCC2CC2)c1 [Roflumilast]
EC gap formation, screening of inflammatory inhibitors (HUVEC): did not decrease EC gap formation

Oc1cccc(-c2noc(-c3cc(-c4ccccc4)c(C(F)(F)F)s3)n2)c1 [Compound I, 3-[5-(4-Phenyl-5-trifluoromethyl-thiophen-2-yl)-[1,2,4]oxadiazol-3-yl]-phenol]
EC50 (S1PR1): 43 nM | levels or activity of biomarker proteins in signaling pathways (off-target effects) [2]: No significant changes | EC gap formation induced by VEGF (HUVEC): reduced the EC gap formation | EC gap formation induced by IL-8 (HUVEC): reduced the EC gap formation | EC gap formation induced by BK (HUVEC): reduced the EC gap formation | EC gap formation, agonist alone (HUVEC): did not affect EC gap formation | EC gap formation, screening of inflammatory inhibitors (HUVEC): inhibited EC gap formation | endothelial gap formation induced by MIC-1 and BK (HUVEC; confluent HUVEC monolayer): inhibited the endothelial gap formation | endothelial gap formation induced by MIC-1 and VEGF (HUVEC; confluent HUVEC monolayer): inhibited the endothelial gap formation | MLC phosphorylation induced by MIC-1 and inflammatory mediators ([3]; FIG. 15E): inhibited the MLC phosphorylation | pMLC levels raised by BK, VEGF or IL-8 ([3]; HUVEC, western blotting): reverse and decrease the pMLC levels | pMLC levels, Compound I alone ([3]; HUVEC, western blotting): did not increase pMLC levels

CCCCCCc1cccc(NC(=O)[C@H](N)CCP(=O)(O)O)c1 [Compound W146]
effect of W146 on internalization mediated by Compound I and SEW2871 [4]: blocked | effect of W146 on the formulation's inhibition of PAF-induced Lp increase ([1]; W146 10 μM): abolished the effect of the nanoliposomal formulation | effect of W146 on Compound I inhibition of BK-mediated EC gap formation (HUVEC; 5 μM W146): blocked the effect of Compound I
